Assay results published in patent publication US20240269337A1, “METHOD AND SYSTEM FOR COATING FILTER MEDIA” (MOLECULAR PLASMA GROUP SA, priority 2021, published 2024).
Where two headings read alike, the source gives them in different places.

System: Bacteriophage MS2
Format: cell-based
Details: for LOG Reduction: plasma coating of precursor on Tyvek substrate, (LOD) = limit of detection

C=CC(=O)NCCC[N+](C)(C)C.[Cl-] [APTAC, (3-Acrylamidopropyl)trimethylammonium chloride]
LOG Reduction: 2.1 log

CCCCCCCCCCCCCCCCCC[N+](C)(C)CCC[Si](OC)(OC)OC.[Cl-] [SiQAM, Dimethyloctadecyl[3-(trimethoxysilyl)propyl] ammonium chloride]
LOG Reduction: 1.56 log

Benzalkonium chloride [reference compound]
LOG Reduction: >3.8 (LOD) log

Citric Acid
Avg. MS2 (log red) (Filter media sample, 6 passes): 2.15 log red | MS2 neutralized (%) (Filter media sample, 6 passes): 99.29% | Avg. MS2 (log red) (Filter media sample, 10 passes): 2.72 log red | MS2 neutralized (%) (Filter media sample, 10 passes): 99.81% | Avg. MS2 (log red) (Filter media sample, 20 passes): 2.46 log red | MS2 neutralized (%) (Filter media sample, 20 passes): 99.65% | Avg. MS2 (log red) (Outer wave sample, 6 passes): 2.13 log red | MS2 neutralized (%) (Outer wave sample, 6 passes): 99.26% | Avg. MS2 (log red) (Outer wave sample, 10 passes): 1.96 log red | MS2 neutralized (%) (Outer wave sample, 10 passes): 98.90% | Avg. MS2 (log red) (Outer wave sample, 20 passes): 2.71 log red | MS2 neutralized (%) (Outer wave sample, 20 passes): 99.81% | LOG Reduction: >5.0 (LOD) log
